This note sets out measurements from US12599610B2, “Solid dosage formulations of an orexin receptor antagonist” (Merck Sharp & Dohme LLC, priority 2012, dated 2026).

A short description of the data set: clinical food-effect pharmacokinetic study in healthy human men, fasted vs high-fat breakfast. The settings on record: male, in vivo, po, 40 mg; for Tmax / Cmax / half-life: single oral 40 mg; for AUC(0-inf): single oral 40 mg dose of hot melt extrusion composition; for half-life: read-out: Apparent Terminal t1/2 (converted). Here is the method: The pharmacokinetic profile of this composition of suvorexant was also tested by administering a single dose of the formulation to healthy human men. […] In the second period of this clinical study, the 7 subjects in each treatment groups were crossed over and received the other treatment.
The fed/fasted GMR and 90% confidence intervals for AUC0-inf were 0.98 (0.90, 1.07).

Where two headings read alike, the source gives them in different places.

On to `Cc1ccc(-n2nccn2)c(C(=O)N2CCN(c3nc4cc(Cl)ccc4o3)CC[C@H]2C)c1` [Suvorexant, 5-chloro-2-{(5R)-5-methyl-4-[5-methyl-2-(2H-1,2,3-triazol-2-yl)benzoyl]-1,4-diazepan-1-yl}-1,3-benzoxazole], for which the Tmax turned out to be 1.5 h (Tmax (Suvorexant Fed/Suvorexant Fasted), fed/fasted); 2 h (Fasted, read-out: Tmax); 3 h (Fed (high-fat breakfast), read-out: Tmax). Also, the AUC(0-inf) is 13.2 µM·h (Fasted (8-hour fast)) and 13 µM·h (Fed (standard high-fat breakfast)). Also, the Cmax reads like this: (Fasted) 1000 nM; (Fed (high-fat breakfast)) 1100 nM. Besides, the half-life is 10.9 h (Fasted) and 11.8 h (Fed (high-fat breakfast)).
